{
  "source": "ChEMBL document CHEMBL4321827",
  "about": "“Development and Therapeutic Potential of Selenazo Compounds” (J Med Chem, 2020)",
  "key": {"Histone deacetylase 5": {"target": "Histone deacetylase 5 (Homo sapiens, UniProt Q9UQL6)", "sequence (Q9UQL6 whole entry)": "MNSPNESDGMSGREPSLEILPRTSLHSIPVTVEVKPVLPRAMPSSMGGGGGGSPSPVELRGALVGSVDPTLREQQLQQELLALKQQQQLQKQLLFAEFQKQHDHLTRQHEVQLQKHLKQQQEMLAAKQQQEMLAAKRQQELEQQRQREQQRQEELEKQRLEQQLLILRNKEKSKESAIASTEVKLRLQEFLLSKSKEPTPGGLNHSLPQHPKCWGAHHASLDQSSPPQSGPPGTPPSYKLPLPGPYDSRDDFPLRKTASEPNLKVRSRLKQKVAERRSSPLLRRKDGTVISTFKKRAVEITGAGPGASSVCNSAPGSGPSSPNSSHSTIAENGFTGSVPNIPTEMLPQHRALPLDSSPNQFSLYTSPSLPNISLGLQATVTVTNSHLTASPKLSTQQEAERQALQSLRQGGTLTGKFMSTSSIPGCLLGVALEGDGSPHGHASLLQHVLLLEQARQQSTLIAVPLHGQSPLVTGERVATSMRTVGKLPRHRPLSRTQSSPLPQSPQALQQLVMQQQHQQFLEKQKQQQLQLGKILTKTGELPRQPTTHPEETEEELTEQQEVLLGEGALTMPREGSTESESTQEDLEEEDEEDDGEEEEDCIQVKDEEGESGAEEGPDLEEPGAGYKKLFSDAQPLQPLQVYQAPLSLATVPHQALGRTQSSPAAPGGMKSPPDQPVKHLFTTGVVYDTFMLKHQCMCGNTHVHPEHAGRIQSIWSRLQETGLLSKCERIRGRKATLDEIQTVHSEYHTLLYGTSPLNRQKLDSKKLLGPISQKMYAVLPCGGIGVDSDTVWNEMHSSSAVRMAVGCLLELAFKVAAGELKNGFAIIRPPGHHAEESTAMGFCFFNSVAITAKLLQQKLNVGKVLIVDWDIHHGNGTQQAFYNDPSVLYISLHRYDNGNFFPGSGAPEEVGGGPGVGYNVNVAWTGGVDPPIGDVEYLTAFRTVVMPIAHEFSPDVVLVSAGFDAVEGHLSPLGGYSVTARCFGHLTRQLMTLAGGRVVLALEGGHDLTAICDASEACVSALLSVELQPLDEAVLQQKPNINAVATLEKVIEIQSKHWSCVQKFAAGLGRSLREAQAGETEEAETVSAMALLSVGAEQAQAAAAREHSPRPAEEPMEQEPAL", "assay": "Inhibition of human recombinant HDAC5 using acetyl-Lys(trifluoroacetyl)-AMC substrate by fluorescence based assay"}, "[1]": {"assay": "Inhibition of inositol monophosphatase (unknown origin)", "design": "species or system Homo sapiens"}, "Rattus norvegicus": {"organism": "Rattus norvegicus", "assay": "Effect on SOD activity in brain of rat with ischemia/reperfusion injury assessed as enzyme activity per mg protein", "type": "functional"}, "[2]": {"assay": "Inhibition of Bacillus anthracis TrxR"}, "[3]": {"assay": "Inhibition of Aspergillus fumigatus TrxR"}, "Histone deacetylase 9": {"target": "Histone deacetylase 9 (Homo sapiens, UniProt Q9UKV0)", "sequence (Q9UKV0 whole entry)": "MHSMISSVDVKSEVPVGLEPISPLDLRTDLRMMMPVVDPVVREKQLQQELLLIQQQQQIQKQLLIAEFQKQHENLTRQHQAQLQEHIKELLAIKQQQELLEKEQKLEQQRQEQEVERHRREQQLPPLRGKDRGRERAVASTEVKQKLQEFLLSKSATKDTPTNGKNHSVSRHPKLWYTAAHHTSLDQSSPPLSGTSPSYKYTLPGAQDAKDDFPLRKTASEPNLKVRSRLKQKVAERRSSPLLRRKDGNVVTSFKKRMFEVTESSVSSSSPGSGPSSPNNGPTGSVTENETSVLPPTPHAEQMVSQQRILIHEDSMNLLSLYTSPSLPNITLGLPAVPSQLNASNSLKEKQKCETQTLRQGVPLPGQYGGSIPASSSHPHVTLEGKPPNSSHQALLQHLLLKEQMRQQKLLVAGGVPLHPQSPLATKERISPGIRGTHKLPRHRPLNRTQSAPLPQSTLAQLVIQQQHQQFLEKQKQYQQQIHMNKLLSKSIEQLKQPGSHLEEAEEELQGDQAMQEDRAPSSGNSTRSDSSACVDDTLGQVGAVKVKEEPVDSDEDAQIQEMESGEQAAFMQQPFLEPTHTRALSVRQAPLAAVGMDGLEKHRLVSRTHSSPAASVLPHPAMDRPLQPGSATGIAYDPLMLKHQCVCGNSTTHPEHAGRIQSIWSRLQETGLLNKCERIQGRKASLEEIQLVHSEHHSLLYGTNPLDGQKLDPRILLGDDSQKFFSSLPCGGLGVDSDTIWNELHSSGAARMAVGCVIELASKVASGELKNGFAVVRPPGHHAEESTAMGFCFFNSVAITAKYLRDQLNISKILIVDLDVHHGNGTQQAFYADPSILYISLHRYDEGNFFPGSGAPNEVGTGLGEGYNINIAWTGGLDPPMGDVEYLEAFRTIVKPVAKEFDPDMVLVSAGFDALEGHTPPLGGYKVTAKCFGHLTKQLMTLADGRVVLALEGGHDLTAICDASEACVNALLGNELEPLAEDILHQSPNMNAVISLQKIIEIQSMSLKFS", "assay": "Inhibition of human recombinant HDAC9 using acetyl-Lys(trifluoroacetyl)-AMC substrate by fluorescence based assay"}, "[4]": {"target": "T1, Protein deacetylase HDAC6 (Homo sapiens, UniProt Q9UBN7)", "T1 sequence (Q9UBN7 whole entry)": "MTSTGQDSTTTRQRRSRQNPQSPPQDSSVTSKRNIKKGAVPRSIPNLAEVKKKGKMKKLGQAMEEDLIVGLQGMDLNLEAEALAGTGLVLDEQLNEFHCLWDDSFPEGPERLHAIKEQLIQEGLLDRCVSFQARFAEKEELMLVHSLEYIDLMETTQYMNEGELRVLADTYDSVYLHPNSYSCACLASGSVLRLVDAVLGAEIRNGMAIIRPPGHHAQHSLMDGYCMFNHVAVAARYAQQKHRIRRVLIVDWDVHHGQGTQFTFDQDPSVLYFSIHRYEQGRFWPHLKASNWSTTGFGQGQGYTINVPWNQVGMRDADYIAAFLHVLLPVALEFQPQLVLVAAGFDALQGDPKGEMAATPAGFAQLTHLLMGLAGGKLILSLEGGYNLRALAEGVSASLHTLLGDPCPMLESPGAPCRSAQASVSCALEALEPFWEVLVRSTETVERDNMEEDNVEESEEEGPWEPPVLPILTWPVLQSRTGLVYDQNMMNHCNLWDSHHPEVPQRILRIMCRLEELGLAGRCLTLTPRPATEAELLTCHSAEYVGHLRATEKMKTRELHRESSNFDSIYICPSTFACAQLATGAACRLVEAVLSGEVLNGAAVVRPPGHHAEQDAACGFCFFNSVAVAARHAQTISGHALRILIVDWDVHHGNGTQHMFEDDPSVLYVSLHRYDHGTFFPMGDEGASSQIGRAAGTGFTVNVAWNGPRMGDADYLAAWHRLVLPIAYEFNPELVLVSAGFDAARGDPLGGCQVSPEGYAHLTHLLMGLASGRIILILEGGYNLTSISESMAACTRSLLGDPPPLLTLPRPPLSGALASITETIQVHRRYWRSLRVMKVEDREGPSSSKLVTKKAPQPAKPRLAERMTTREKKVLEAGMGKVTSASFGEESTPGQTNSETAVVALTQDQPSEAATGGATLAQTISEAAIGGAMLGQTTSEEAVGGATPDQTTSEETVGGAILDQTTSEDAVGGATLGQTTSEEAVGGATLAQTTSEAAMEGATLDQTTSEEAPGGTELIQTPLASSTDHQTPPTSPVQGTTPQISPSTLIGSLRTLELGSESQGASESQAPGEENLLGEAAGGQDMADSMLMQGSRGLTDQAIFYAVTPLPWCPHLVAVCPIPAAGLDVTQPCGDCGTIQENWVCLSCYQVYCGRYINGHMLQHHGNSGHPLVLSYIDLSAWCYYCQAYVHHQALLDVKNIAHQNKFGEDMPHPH", "assay": "Inhibition of human recombinant HDAC6 using RHKKAc-AMC substrate by fluorescence based assay"}, "[5]": {"assay": "Inhibition of Candida albicans H+-ATPase"}, "Cryptosporidium parvum": {"test_system": "Cryptosporidium parvum", "assay": "Substrate activity at Cryptosporidium parvum glucose 6-phosphate isomerase"}},
  "data": [
    {"molecule": "O=c1c2ccccc2[se]n1-c1ccccc1", "note": "[EBSELEN]", "values": [
      {"measurement": "IC50", "setting": "Histone deacetylase 5", "result": 3.4, "unit": "µM"},
      {"measurement": "IC50", "setting": "[1]", "result": 1.5, "unit": "µM"},
      {"measurement": "Activity", "setting": "Rattus norvegicus", "result": 0.105, "unit": "U"},
      {"measurement": "IC50", "setting": "[2]", "result": 1, "unit": "µM"},
      {"measurement": "Ki", "setting": "[3]", "result": 0.22, "unit": "µM"},
      {"measurement": "IC50", "setting": "Histone deacetylase 9", "result": 3.7, "unit": "µM"},
      {"measurement": "IC50", "setting": "[4]", "result": 6.9, "unit": "µM"},
      {"measurement": "IC50", "setting": "[5]", "result": 3.9, "unit": "µM"},
      {"measurement": "Km", "setting": "Cryptosporidium parvum", "result": 309, "unit": "µM"}
    ]}
  ]
}
